Source: publication PMC10107299, “Neutralizing the Impact of the Virulence Factor LecA from Pseudomonas aeruginosa on Human Cells with New Glycomimetic Inhibitors” (Angewandte Chemie (International Ed. in English), 2023)
Converted amounts (≈) assume the structure as drawn.

Tests used:
[1] = Kinetic solubility in TBS/Ca2+ buffer (HPLC-MS); format: physicochemical; conditions: aqueous buffer, kinetic from dmso stock; TBS/Ca2+ buffer pH 7.4, 1 % DMSO, N≥3; read-out: Solubility S (kinetic)
Protocol: Next, we quantified the solubility of at least one representative of each new class and of one parent bisacylhydrazone in aqueous media (Table 1). […]
TBS/Ca2+ buffer (20 mM Tris, 137 mM NaCl, 2.6 mM KCl at pH 7.4 supplemented with 1 mM […]
CaCl2) in presence of 25% DMSO. […]
Kinetic solubility was determined on the analytical HPLC-MS using Compass QuantAnalysis quantification software (Bruker). Samples were prepared from DMSO stock solutions by dilution with TBS/Ca2+ buffer to 100 µM with 1% DMSO present. Samples were incubated on a shaker for 1 h at r.t., centrifuged (21380 g, 20 min), supernatants were diluted with DMSO (1:3), analyzed by HPLC-MS and fitted to the individual calibration curves.
Every experiment was repeated independently at least three times. […]

[2] = Plasma protein binding (rapid equilibrium device), human plasma; format: in vitro ADME; conditions: both sexes, human, plasma, read-out: PPB Human (converted)
Protocol: mixer (Eppendorf). Acetonitrile and caffeine were dispensed using a Mantis Formulatrix. Then samples were centrifuged for 20 min at 2.270 x g at 4 °C and the supernatants were transferred to 96-well Greiner V-bottom plates. Peak areas of each compound and of the internal standard were analyzed using the MultiQuant 3.0 software (AB Sciex). Peak areas of the respective compound were normalized to the internal standard peak area and to the respective peak areas at time point 0 min: (C/D)/(A/B) with A: peak area of the compound at time point 0 min, B: peak area of the internal standard at time point 0 min, C: peak area of the compound at the respective time point, D: peak area of the internal standard at the respective time point. […]
Assessment of plasma protein binding
Plasma protein binding was assessed using the rapid equilibrium device (RED) system from ThermoFisher. Compounds were dissolved in DMSO. […]
high plasma protein binding. Compounds were diluted in murine plasma (from CD-1 mice, pooled) or in human plasma (human donors, both genders, pooled) to a final concentration of 1 µM. Dialysis buffer and plasma samples were added to the respective chambers according the manufacturer’s protocol. The RED plate was sealed with a tape and incubated at 37 °C for 2 hours at 800 rpm on an Eppendorf MixMate vortex-mixer. Then samples were withdrawn from the respective chambers. To 25 µL of each dialysis sample, 25 µL of plasma and to 25 µL of plasma sample, 25 µL of dialysis buffer was added. Then 150 µL ice-cold extraction solvent (ACN/H2O (90:10) containing 12.5 ng/mL caffeine as internal standard) was added. Samples were incubated for 30 min on ice. Then samples were centrifuged at 4 °C at 2270 x g for 10 min.
Supernatants were transferred to Greiner V-bottom 96-well plates and sealed with a tape. The […]
percentage of bound compound was calculated as follows:
(1) % free = (concentration buffer chamber / concentration plasma chamber) *100 […]
Samples were analyzed using an Agilent 1290 Infinity II HPLC system coupled to an AB Sciex QTrap 6500plus mass spectrometer. LC conditions were as follows: column: Agilent […]
Zorbax Eclipse Plus C18, 50x2.1 mm, 1.8 µm; temperature: 30 °C; injection volume: 5 µL per […]
sample; flow rate: 700 µL/min. Samples were run under acidic and buffered conditions.
Solvents for acidic conditions: A1: water + 0.1% formic acid; solvent B1: 95% acetonitrile/5% […]
H2O + 0.1% formic acid; solvents for buffered conditions: A2: 95% water + 5% acetonitrile + […]
5 mM ammonium acetate + 40 µL/L acetic acid; B2: 95% acetonitrile + 5% water + 5 mM […]
ammonium acetate + 40 µL/L acetic acid. The same gradient was applied for acidic and […]
buffered conditions: 99% A at 0 min, 99% A until 1 min, 99% - 0% A from 1 min to 4.0 min, […]
0% A until 5.0 min. Mass transitions for controls and compounds are depicted in the following […]

LecA = target: T1, LecA (Pseudomonas aeruginosa, UniProt Q05097); test: LecA binding and cellular uptake by fluorescence confocal microscopy; format: cell-based; conditions: for LecA binding to H1299 cells (fluorescence signal): 10 μM inhibitor; for Concentration for complete inhibition of LecA binding and cellular uptake: 0.5 μM LecA-AF488, H1299 cells, confocal microscopy
T1 construct: made in house
T1 sequence (Q05097 whole entry): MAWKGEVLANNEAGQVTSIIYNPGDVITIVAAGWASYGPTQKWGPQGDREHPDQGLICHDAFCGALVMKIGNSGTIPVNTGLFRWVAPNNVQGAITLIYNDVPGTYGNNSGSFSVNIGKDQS
Protocol: The ability of H2 and L2 to diminish LecA binding to host receptors at the plasma membrane and its subsequent internalization into H1299 cells was further analyzed by confocal fluorescence microscopy. Here, the applied LecA concentration was increased to improve signal to noise and consequently image quality and inhibitors were preincubated with 0.5 μM LecA before addition to the cells. […] Confocal microscopy images thus confirmed that the divalent inhibitors can prevent LecA binding to the cell surface and reduce lectin uptake in a concentration‐dependent manner. […]
LecA binding and cellular uptake by fluorescence confocal microscopy
Between 5 and 7 × 10^4 cells were seeded on a 12 mm glass coverslip to which they adhered overnight, at 37 °C and 5% CO2. The next day, the cells were incubated with 0.5 µM LecA-AF488 for 30 min at 4 °C and protected from light. Where indicated, LecA was firstly preincubated with PNPG, G2, K2, H2 or L2 in RPMI medium, for 30 min at room temperature and protected from light and then added to the cells for further incubation (30 min, 4 °C).
Subsequently, cells were washed with PBS (-/-) to remove the unbound lectin and inhibitors and the samples were incubated for 1 h at 37 °C. After the lectin stimulation, cells were washed twice with ice-cold PBS (-/-), fixed with 4% paraformaldehyde solution for 15 min and quenched with 50 mM ammonium chloride for 10 min. The membrane was permeabilized and cells were blocked by 0.2% Saponin in 3% BSA in PBS (w/v) for 30 min. The cell nuclei were counterstained with DAPI (5 × 10-9 g/L), and the samples were mounted on coverslips using Mowiol 4-88 (containing the anti-bleaching reagent DABCO). Samples were visualized with laser scanning confocal microscope system from Nikon (Eclipse Ti-E, A1R), equipped with a 60x oil immersion objective and a numerical aperture (NA) of 1.49. The images were analyzed

For `O=C(CCc1ccc(O[C@@H]2O[C@H](CO)[C@H](O)[C@H](O)[C@H]2O)cc1)Nc1ccc(OCCOc2ccc(NC(=O)CCc3ccc(O[C@@H]4O[C@H](CO)[C@H](O)[C@H](O)[C@H]4O)cc3)cn2)nc1` [Compound H2], the solubility kinetic at 1 h [1] was 14.8 ± 1.5 µM (≈ 12.8 µg/mL), the fraction unbound at 2 h, 1 µM [2] was 0.005 and the “LecA binding to H1299 cells (fluorescence signal)” value (LecA) was “remarkably decreased”.

`O=C(/C=C/c1ccc(O[C@@H]2O[C@H](CO)[C@H](O)[C@H](O)[C@H]2O)cc1)Nc1ccc(OCCOc2ccc(NC(=O)/C=C/c3ccc(O[C@@H]4O[C@H](CO)[C@H](O)[C@H](O)[C@H]4O)cc3)cc2)cc1` [Compound D1] showed a solubility kinetic at 1 h [1] of 3.3 ± 1.3 µM (≈ 2.84 µg/mL) and a fraction unbound at 2 h, 1 µM [2] of 0.004.

With `O=C(CCc1ccc(O[C@@H]2O[C@H](CO)[C@H](O)[C@H](O)[C@H]2O)cc1)Nc1ccc(OCCOc2ccc(NC(=O)CCc3ccc(O[C@@H]4O[C@H](CO)[C@H](O)[C@H](O)[C@H]4O)cc3)cc2)cc1` [Compound D2] the solubility kinetic at 1 h [1] was 3.1 ± 2.1 µM (≈ 2.68 µg/mL) and the fraction unbound at 2 h, 1 µM [2] was 0.005.

In the case of `Cc1ccc(NC(=O)CCc2ccc(O[C@@H]3O[C@H](CO)[C@H](O)[C@H](O)[C@H]3O)cc2)cc1S(=O)(=O)O` [Compound K2], the “Concentration for complete inhibition of LecA binding and cellular uptake” value (LecA) is reported as 75 µM.

With `O=C(CCc1ccc(O[C@@H]2O[C@H](CO)[C@H](O)[C@H](O)[C@H]2O)cc1)Nc1ccc(CCc2ccc(NC(=O)CCc3ccc(O[C@@H]4O[C@H](CO)[C@H](O)[C@H](O)[C@H]4O)cc3)cc2S(=O)(=O)O)c(S(=O)(=O)O)c1` [Compound L2] the fraction unbound at 2 h, 1 µM [2] was 0.62 and the “LecA binding to H1299 cells (fluorescence signal)” value (LecA) was “remarkably decreased”.

In the case of `O=C(/C=C/c1ccc(O[C@@H]2O[C@H](CO)[C@H](O)[C@H](O)[C@H]2O)cc1)Nc1ccc(OCCOc2ccc(NC(=O)/C=C/c3ccc(O[C@@H]4O[C@H](CO)[C@H](O)[C@H](O)[C@H]4O)cc3)cn2)nc1` [Compound H1], the solubility kinetic at 1 h [1] is reported as 8.1 ± 2.2 µM (≈ 6.99 µg/mL).

In the case of `COc1ccc(NC(=O)CCc2ccc(O[C@@H]3O[C@H](CO)[C@H](O)[C@H](O)[C@H]3O)cc2)cn1` [Compound G2], the “Concentration for complete inhibition of LecA binding and cellular uptake” value (LecA) is reported as 75 µM.
